Reference: paper PMC9078263 (RSC Advances, 2018)

target: New Delhi metallo-β-lactamase 1 (NDM-1) (Acinetobacter baumannii, UniProt F8UNN7); test: steady-state kinetics of hydrolysis; assay type: biochemical
Sequence (F8UNN7 1-270): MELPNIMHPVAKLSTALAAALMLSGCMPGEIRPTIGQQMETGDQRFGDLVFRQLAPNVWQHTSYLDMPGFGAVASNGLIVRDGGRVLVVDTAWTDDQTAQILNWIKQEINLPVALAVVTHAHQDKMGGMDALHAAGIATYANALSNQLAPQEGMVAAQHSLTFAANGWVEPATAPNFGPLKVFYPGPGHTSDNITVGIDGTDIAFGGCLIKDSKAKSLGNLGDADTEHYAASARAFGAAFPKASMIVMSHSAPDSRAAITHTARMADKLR

SMILES	Km
CO[C@@]1(NC(=O)Cc2cccs2)C(=O)N2C(C(=O)O)=C(COC(N)=O)CS[C@@H]21 [cefoxitin]	> 60 µM
CC(C)(O/N=C(\C(=O)N[C@@H]1C(=O)N2C(C(=O)[O-])=C(C[n+]3ccccc3)CS[C@H]12)c1csc(N)n1)C(=O)O [ceftazidime]	> 60 µM
C[C@@H](O)[C@H]1C(=O)N2C(C(=O)O)=C(S[C@@H]3CN[C@H](C(=O)N(C)C)C3)[C@H](C)[C@H]12 [meropenem]	> 60 µM
